According to patent US4826847A, “Beta-blocking oxindole derivatives” (Boehringer Mannheim GmbH, priority 1984, dated 1989):
Structures can show the parent of a compound that is named as a salt. Where two headings read alike, the source gives them in different places.

What was measured:
[1] = test system: increase of the frequency through isoprenaline; assay: β-blocking effectiveness: inhibition of isoprenaline-induced increase of the frequency in rabbits; type: in vivo, rabbit; settings: Oryctolagus cuniculus, iv, read-out: ID 50 fcor (dose which causes an inhibition of 50% of the increase of the frequency through isoprenaline)
livers = assay: denitration rate relative to isosorbide-5-mononitrate (Vrel): NO2 freed in perfusate of re-perfused rat livers; settings: rat liver perfusion 4 min, 5×10^-5 M/l, NO2 determined in the perfusate; high values = fast denitration
[2] = rabbits, i.v., isoprenaline 1 mcg/kg i.v.

Row | SMILES | ED50 [1, 2] [mg/kg] | Vrel (denitration rate in relation to isosorbide-5-mononitrate) (livers) | ED50 [1] [mg/kg]
1 | CC(C)(CCO[N+](=O)[O-])NCC(O)COc1cccc2c1CC(=O)N2 (centres unmarked) [1 (a), 4-[2-hydroxy-3-(1,1-dimethyl-3-nitratopropylamino)-propoxy]-indolinone hemifumarate] | 0.015 | 1.23 | –
2 | CC(CC(C)O[N+](=O)[O-])NCC(O)COc1cccc2c1CC(=O)N2 (centres unmarked) [1 (b), 4-[2-hydroxy-3-(1,3-dimethyl-3-nitratopropylamino)-propoxy]-indolinone fumarate] | 0.0038 | 2.02 | –
3 | CC(CCO[N+](=O)[O-])NCC(O)COc1ccc2c(c1)CC(=O)N2 (centres unmarked) [1 (c), 5-[2-hydroxy-3-(1-methyl-3-nitratopropylamino)-propoxy]-indolinone fumarate] | 5.08 | 1.77 | –
4 | CC(CCO[N+](=O)[O-])NCC(O)COc1ccc2c(c1)NC(=O)C2 (centres unmarked) [1 (d), 6-[2-hydroxy-3-(1-methyl-3-nitratopropylamino)-propoxy]-indolinone fumarate] | – | 1.81 | –
5 | CC(CCO[N+](=O)[O-])NCC(O)COc1cccc2c1NC(=O)C2 (centres unmarked) [1 (e), 7-[2-hydroxy-3-(1-methyl-3-nitratopropylamino)-propoxy]-indolinone fumarate] | – | 1.79 | –
6 | CC(CCO[N+](=O)[O-])NCC(O)COc1ccc2c(c1)C(C(C)C)C(=O)N2 (centres unmarked) [1 (f), 5-[2-hydroxy-3-(1-methyl-3-nitratopropylamino)-propoxy]-3-isopropylindolinone] | – | 3.01 | –
7 | CC(CCO[N+](=O)[O-])NCC(O)COc1ccc2c(c1)C(C(C)c1ccccc1)C(=O)N2 (stereo not drawn) [1 (g), 5-[2-hydroxy-3-(1-methyl-3-nitratopropylamino)-propoxy]-3-(α-methylbenzyl)-indolinone hemifumarate] | 5.31 | 0.70 | –
8 | CC(=C1C(=O)Nc2ccc(OCC(O)CNC(C)CCO[N+](=O)[O-])cc21)c1ccccc1 (stereo not drawn) [1 (i), 5-[2-hydroxy-3-(1-methyl-3-nitratopropylamino)-propoxy]-3-(α-methylbenzylidene)-indolinone hemifumarate] | 3.36 | 0.81 | –
9 | CC(CCO[N+](=O)[O-])NCC(O)COc1cccc2c1C(=Cc1ccc[nH]1)C(=O)N2 (centres unmarked) [2 (a), 4-[2-hydroxy-3-(1-methyl-3-nitratopropylamino)-propoxy]-3-(pyrrol-2-yl)-methylene-indolinone hemifumarate] | – | 2.40 | –
10 | CC(CCO[N+](=O)[O-])NCC(O)COc1cccc2c1C(=Cc1ccccn1)C(=O)N2 (centres unmarked) [2 (b), 4-[2-hydroxy-3-(1-methyl-3-nitratopropylamino)-propoxy]-3-(pyridin-2-yl)-methylene-indolinone fumarate] | 0.172 | 0.86 | –
11 | CC(CCO[N+](=O)[O-])NCC(O)COc1cccc2c1C(=Cc1ccccc1)C(=O)N2 (centres unmarked) [2 (c), 4-[2-hydroxy-3-(1-methyl-3-nitratopropylamino)-propoxy]-3-benzylideneindolinone fumarate] | 1.97 | 0.59 | –
12 | CC(CCO[N+](=O)[O-])NCC(O)COc1cccc2c1C(=Cc1ccco1)C(=O)N2 (centres unmarked) [4 (a), 4-[2-hydroxy-3-(1-methyl-3-nitratopropylamino)-propoxy]-3-(furan-2-yl)-methylene-indolinone fumarate] | 0.0096 | 0.65 | –
13 | CC(CCO[N+](=O)[O-])NCC(O)COc1cccc2c1C(=Cc1cccs1)C(=O)N2 (centres unmarked) [4 (b), 4-[2-hydroxy-3-(1-methyl-3-nitratopropylamino)-propoxy]-3-(thiophen-2-yl)-methylene-indolinone fumarate] | 0.0276 | 0.54 | –
14 | CC(CCO[N+](=O)[O-])NCC(O)COc1cccc2c1C(=Cc1nc[nH]n1)C(=O)N2 (centres unmarked) [4 (d), 4-[2-hydroxy-3-(1-methyl-3-nitratopropylamino)-propoxy]-3-(1,2,4-triazol-3-yl)-methyleneindolinone fumarate] | 0.0096 | 1.00 | –
15 | CC(=O)O.CC(CCO[N+](=O)[O-])NCC(O)COc1cccc2c1C(=Cc1cc(=O)[nH]c(=O)[nH]1)C(=O)N2 (centres unmarked) [4 (f), 4-[2-hydroxy-3-(1-methyl-3-nitratopropylamino)-propoxy]-3-(uracil-4-yl)-methylene-indolinone acetate] | – | 1.80 | –
16 | CC(C)(CCO[N+](=O)[O-])NCC(O)COc1cccc2c1C(=Cc1ccn[nH]1)C(=O)N2 (centres unmarked) [4 (g), 4-[2-hydroxy-3-(1,1-dimethyl-3-nitratopropylamino)-propoxy]-3-(pyrazol-5-yl)-methylene-indolinone hemifumarate] | 0.013 | 1.59 | –
17 | CC(CC(C)O[N+](=O)[O-])NCC(O)COc1cccc2c1C(=Cc1ccn[nH]1)C(=O)N2 (centres unmarked) [4 (h), 4-[2-hydroxy-3-(1,3-dimethyl-3-nitratopropylamino)-propoxy]-3-pyrazol-5-yl)-methylene-indolinone fumarate] | 0.039 | 1.39 | –
18 | CC(CCO[N+](=O)[O-])NCC(O)COc1cccc2c1C(=Cc1ccc(C#N)cc1)C(=O)N2 (centres unmarked) [4 (j), 4-[2-hydroxy-3-(1-methyl-3-nitratopropylamino)-propoxy]-3-(4-cyanobenzylidene)-indolinone hemifumarate] | – | 0.49 | –
19 | Cc1cc(C=C2C(=O)Nc3cccc(OCC(O)CNCC(C)(C)CO[N+](=O)[O-])c32)[nH]n1 (centres unmarked) [4 (k), 4-[2-hydroxy-3-(2,2-dimethyl-3-nitratopropylamino)-propoxy]-3-(3-methylpyrazol-5-yl)-methyleneindolinone] | – | 1.88 | –
20 | CC(CCO[N+](=O)[O-])NCC(O)COc1cccc2c1C(C)(C)C(=O)N2 (centres unmarked) [BV 2, 4-[2-hydroxy-3-(1-methyl-3-nitratopropylamino)-propoxy]-3,3-dimethylindolinone fumarate] | – | 2.99 | –
21 | CC(CCO[N+](=O)[O-])NCC(O)COc1cccc2c1C(=Cc1cccc(Cl)c1)C(=O)N2 (centres unmarked) [BV 4, 4-[2-hydroxy-3-(1-methyl-3-nitratopropylamino)-propoxy]-3-(3-chlorobenzylidene)-indolinone fumarate] | 1.09 | 1.22 | –
22 | Cc1ccccc1C=C1C(=O)Nc2cccc(OCC(O)CNC(C)CCO[N+](=O)[O-])c21 (centres unmarked) [BV 6, 4-[2-hydroxy-3-(1-methyl-3-nitratopropylamino)-propoxy]-3-(2-methylbenzylidene)-indolinon fumarate] | > 4 | 0.74 | –
23 | COc1cccc(C=C2C(=O)Nc3cccc(OCC(O)CNC(C)CCO[N+](=O)[O-])c32)c1 (centres unmarked) [BV 9, 4-[2-hydroxy-3-(1-methyl-3-nitratopropylamino)-propoxy]-3-(3-methoxybenzylidene)-indolinone acetate] | 0.765 | 0.60 | –
24 | CC(CCO[N+](=O)[O-])NCC(O)COc1cccc2c1C(=Cc1ccc([N+](=O)[O-])cc1)C(=O)N2 (centres unmarked) [BV 20, 4-[2-hydroxy-3-(1-methyl-3-nitratopropylamino)-propoxy]-3-(4-nitrobenzylidene)-indolinone] | – | 0.71 | 0.113
25 | CC(C)(CNCC(O)COc1cccc2c1CC(=O)N2)CO[N+](=O)[O-] (centres unmarked) [BV 40, 4-[2-hydroxy-3-(2,2-dimethyl-3-nitratopropylamino)-propoxy]-indolinone hemifumarate] | 0.69 | 3.51 | –
26 | Cc1cc(C=C2C(=O)Nc3cccc(OCC(O)CNC(C)CCO[N+](=O)[O-])c32)[nH]n1 (centres unmarked) [BV 43, 4-[2-hydroxy-3-(1-methyl-3-nitratopropylamino)-propoxy]-3-(3-methylpyrazol-5-yl)-methyleneindolinone] | 0.0096 | 0.83 | –
27 | CC(CCO[N+](=O)[O-])NCC(O)COc1cccc2c1CC(=O)N2 (centres unmarked) [Example 1, 4-[2-hydroxy-3-(1-methyl-3-nitratopropylamino)-propoxy]-indolinone benzoate] | 0.0066 | 1.60 | –
28 | CC(CCO[N+](=O)[O-])NCC(O)COc1cccc2c1C(=Cc1ccn[nH]1)C(=O)N2 (centres unmarked) [Example 2, 4-[2-Hydroxy-3-(1-methyl-3-nitratopropylamino)-propoxy]-3-(pyrazol-5-yl)-methyleneindolinone benzoate] | 0.011 | 1.12 | –
29 | O=[N+]([O-])O[C@@H]1CO[C@H]2[C@@H]1OC[C@@H]2O [Isosorbide-5-mononitrate, isosorbide-5-mononitrate, reference compound] | – | 0.86 | –
30 | CC(C)NCC(O)COc1cccc2[nH]ccc12 (centres unmarked) [Pindolol, reference compound] | 0.104 | – | –
